Source: US20060009520A1, “Retinoid-based methods for altering macrophage cholesterol” (priority 2004, published 2006)

What was measured:
[1] = test system: ABCA1, ABCG1, SREBP-1c, apoE, LXRα, Cyp26 mRNA; assay: Quantitative real-time PCR of LXR target genes and Cyp26 in human monocyte-derived macrophages; format: cell-based; conditions: human macrophages
Procedure: (§1) For quantification of mouse Cyp26 mRNA levels, each amplification mixture (25 μ) contained 62.5 ng of cDNA, 100 nM concentrations of reverse and forward primers, and 2.5 μl of 10× SYBR Green PCR master mix (Perkin-Elmer Life Sciences, Boston, Mass.). Quantitative expression values were extrapolated from standard curves for Cyp26 expression with 10-fold dilutions of cDNA (in triplicate). Each sample was normalized to β-actin that was deduced from TaqMan assays, triplicate results were averaged, and relative Cyp26 mRNA levels were determined. The primers mCyp26 F (5′-[…]-3′) and mCyp26 R (5′-[…]-3′) were used. RNA measurements from human monocyte-derived macrophages were performed as described previously (10, 44).

FXR = biological target: T1, FXR (Mus musculus, UniProt Q60641); conditions: cited from earlier work
T1 sequence (Q60641 1-488): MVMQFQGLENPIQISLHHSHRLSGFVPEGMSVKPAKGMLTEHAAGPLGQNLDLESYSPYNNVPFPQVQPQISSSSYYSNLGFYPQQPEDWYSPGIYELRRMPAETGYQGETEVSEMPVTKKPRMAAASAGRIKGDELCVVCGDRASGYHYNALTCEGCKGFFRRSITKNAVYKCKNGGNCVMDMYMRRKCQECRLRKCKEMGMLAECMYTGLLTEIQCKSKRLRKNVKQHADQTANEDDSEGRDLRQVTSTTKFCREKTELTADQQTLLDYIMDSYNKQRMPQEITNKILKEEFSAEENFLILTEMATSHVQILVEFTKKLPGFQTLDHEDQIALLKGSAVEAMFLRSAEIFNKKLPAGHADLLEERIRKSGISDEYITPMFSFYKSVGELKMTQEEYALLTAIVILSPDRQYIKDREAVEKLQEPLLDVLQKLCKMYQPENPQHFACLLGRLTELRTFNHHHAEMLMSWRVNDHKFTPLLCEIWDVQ

[2] = test system: ABCA1, ABCG1, SREBP-1c, apoE, LXRα, Cyp26 mRNA; assay: Quantitative real-time PCR of LXR target genes and Cyp26 in mouse peritoneal macrophages; format: cell-based
Procedure: Total RNA was isolated from mouse peritoneal macrophages or ˜50 mg of mouse liver tissue by using the RNeasy Mini kit (Qiagen, Valencia, Calif.) or RNA-Bee reagent (Tel-Test, Inc., Friendswood, Tex.), respectively, according to the manufacturer's protocol. Real-time quantitative PCR assays were performed by using the Mx4000 Quantitative PCR System (Stratagene, La Jolla, Calif.). Briefly, 5 μg of total RNA was treated with RNase-free DNase I (Ambion, Austin, Tex.), and first-strand cDNA was synthesized with oligo(dT)12-18 by using a Superscript II RNase H^− reverse transcriptase reagent kit (Invitrogen) according to the manufacturer's protocol. For quantification of mouse ABCA1, ABCG1, SREBP-1c, LXRα, ApoE, and fatty acid synthase (FAS) mRNA levels, each amplification mixture contained 62.5 ng of cDNA, appropriate concentrations of forward and reverse primers and of dual-labeled fluorogenic probe (Biosearch Technologies, Novato, Calif.), and 12.5 μl of TaqMan Universal PCR master mix (Applied Biosystems, Foster City, Calif.). PCR thermocycling parameters were 50° C. for 2 min, 95° C. for 10 min, and 45 cycles of 95° C. for 15 s and 60° C. for 1 min. All samples were analyzed for β-actin expression in the same run. Quantitative expression values were extrapolated from standard curves for the gene of interest with 10-fold dilutions of cDNA (in triplicate). Each sample was normalized to β-actin, triplicates were averaged, and relative mRNA levels were determined. The following mouse primers and probes were used: mouse ABCA1 (mABCA1) forward (F) (5′-[…]-3′), mABCA1 reverse (R) (5′-[…]-3′), and mABCA1 TaqMan probe (5′-FAM-[…]-BHQ-3′); mABCG1 F (5′-[…]-3′), mABCG1 R (5′-[…]-3′), and mABCG1 TaqMan probe (5′-FAM-[…]-BHQ-3′); mSREBP-1c F (5′-[…]-3′), mSREBP-1c R (5′-[…]-3′), and mSREBP-1c TaqMan probe (5′-FAM-[…]-BHQ-3′); mApoE F (5′-[…]-3′), mApoE R (5′-[…]-3′), and mApoE TaqMan probe (5′-FAM-[…]-BHQ-3′); mLXRα F (5′-[…]-3′), mLXRα R (5′-[…]-3′), and mLXRα TaqMan probe (5′-FAM-[…]-BHQ-3′); mFAS F (5′-[…]-3′), mFAS R (5′-[…]-3′), and mFAS TaqMan probe (5′-FAM-[…]-BHQ-3′); and mβ-actin F (5′-[…]-3′), mβ-actin R (5′-[…]-3′), and mβ-actin TaqMan probe (5′-JOE-[…]-BHQ-3′).
as §1

ABCA1 protein [3] = assay: Western blot of ABCA1 protein in mouse peritoneal macrophages; format: cell-based; conditions: 24 h
Procedure: (§2) Protein extracts from macrophages were prepared by lysing the cells in modified radioimmunoprecipitation assay buffer (50 mM Tris, 150 mM NaCl, 1 mM EDTA. 1% Triton X-100) containing a protease inhibitor cocktail (Complete EDTA Free; Roche). Protein content in the extracts was determined by using the DC protein assay (Bio-Rad, Hercules, Calif.). Equal amounts of protein (40 to 50 μg) were separated by electrophoresis with 4 to 15% acrylamide gradient gels (Bio-Rad) and then transferred to nitrocellulose membrane (Trans-Blot Transfer Medium; Bio-Rad). Membranes were probed with anti-ABCA1 antibody (Novus Biologicals, Littleton, Colo.) and anti-β-actin antibody (Sigma) according to the manufacturer's recommendations. Immunoblots were developed by using a chemiluminescent detection system (Super Signal West Pico chemiluminescent substrate; Pierce, Rockford, Ill.).

ABCA1 protein [4] = assay: Western blot of ABCA1 protein in RARγ−/− mouse peritoneal macrophages; format: cell-based; conditions: 5 μM, 24 h
Procedure: as §2

[5] = mouse peritoneal macrophages, TTNPB 1 μM, 24 h

C/C(=C\c1ccc(C(=O)O)cc1)c1ccc2c(c1)C(C)(C)CCC2(C)C [TTNPB, 4-[E-2-5,6.7.8-tetrahydro-5,5,8,8-tetramethyl-2-naphthalenyl-l-propenyl]benzoic acid]
Cyp26 mRNA increase [1]: ~6 fold | induction of ABCA1 or other LXR target genes, compared with ATRA [1]: much less effective than ATRA | FXR activation (FXR): activates FXR at relatively high concentrations | ABCA1 mRNA [2, 5]: induction of macrophage ABCA1 mRNA | SREBP-1c mRNA [2, 5]: no effect | Cyp26 mRNA increase ([2]; murine macrophages): 30 fold | ABCA1 protein levels (ABCA1 protein [3]): accumulation of ABCA1 protein | ABCA1 protein induction (ABCA1 protein [4]): still induced
